Measurements reported in ChEMBL document CHEMBL5050833, “Novel cyclic trex1 inhibitors” (2020).

Assays:
[1] = Inhibition of human TREX1 exonuclease activity using labeled DNA oligonucleotide as substrate incubated for 30 mins and measured after 45 mins by fluorescence assay
[2] = Inhibition of mouse TREX1 exonuclease activity using labeled DNA oligonucleotide as substrate incubated for 30 mins and measured after 45 mins by fluorescence assay
[3] = organism: Mus musculus; assay: Binding affinity to recombinant mouse TREX1 incubated in PBS and measured by thermal shift binding assay; further: test concentration or dose not given here
[4] = organism: Homo sapiens; assay: Binding affinity to recombinant human TREX1 incubated in assay buffer and measured by thermal shift binding assay; further: test concentration or dose not given here
[5] = organism: Mus musculus; assay: Binding affinity to recombinant mouse TREX1 incubated in assay buffer and measured by thermal shift binding assay; further: test concentration or dose not given here
[6] = organism: Homo sapiens; assay: Binding affinity to recombinant human TREX1 incubated in PBS and measured by thermal shift binding assay; further: test concentration or dose not given here

SMILES | IC50 [1] | IC50 [2] | other results
CC(C)C[C@H](C(=O)NCc1cc(Cl)cc(Cl)c1)N1CCC(CCc2ccccc2)N2C[C@H](N)C[C@H]2C1=O (stereo not given in full) | < 1000 nM | in the range around 1 µM | –
CC(C)C[C@H](C(=O)NCc1ccc(Cl)cc1)N1CCC(C[S@+]([O-])c2ccccc2)N2C[C@H](N)C[C@H]2C1=O (stereo not given in full) | < 1000 nM | in the range around 1 µM | –
CC(C)C[C@H](C(=O)NCc1cncs1)N1CCC(CCc2ccccc2)N2C[C@H](N)C[C@H]2C1=O (stereo not given in full) | in the range around 1000 nM | in the range around 10 µM | –
CC(C)C[C@H](C(=O)NCc1ccc(C#N)cc1)N1CCC(CCc2ccccc2)N2C[C@H](N)C[C@H]2C1=O (stereo not given in full) | in the range around 1000 nM | in the range around 10 µM | –
CC(C)C[C@H](C(=O)NCc1ccc(Cl)cc1)N1CCC(C[S@@+]([O-])c2ccccc2)N2C[C@H](N)C[C@H]2C1=O (stereo not given in full) | < 1000 nM | in the range around 1 µM | –
N[C@@H]1C[C@H]2C(=O)N([C@H](CCC(=O)O)C(=O)NCc3ccc(Cl)c(Cl)c3)CCC(CCc3ccccc3)N2C1 (stereo in doubt; form 2) [listing 1 of 2 here] | – | – | ΔTm [3]: > 8 °C; ΔTm [4]: > 8 °C
CC(C)C[C@H](C(=O)NS(=O)(=O)c1ccccc1)N1CCC(CCc2ccccc2)N2C[C@H](N)C[C@H]2C1=O (stereo not given in full) | in the range around 1000 nM | in the range around 1 µM | –
CC(C)C[C@H](C(=O)NCc1ccc(Cl)c(Cl)c1)N1CCC(CSc2ccccc2)N2C[C@H](N)C[C@H]2C1=O (stereo not given in full) | < 1000 nM | < 1 µM | –
Cc1nnc(CC[C@H](C(=O)NCc2ccc(Cl)c(Cl)c2)N2CCC(CCc3ccccc3)N3C[C@H](N)C[C@H]3C2=O)[nH]1 (stereo not given in full) | < 1000 nM | < 1 µM | –
CC(C)C[C@H](C(=O)NCc1ccc(Cl)c(Cl)c1)N1CCC(CCc2ccc(Cl)cc2)N2C[C@H](N)C[C@H]2C1=O (stereo not given in full) | < 1000 nM | in the range around 1 µM | –
N[C@@H]1C[C@H]2C(=O)N([C@H](CCC(=O)O)C(=O)NCc3ccc(C(F)(F)F)cc3)CCC(CCc3ccccc3)N2C1 (stereo in doubt; form 1) | in the range around 10000 nM | in the range around 10 µM | –
N#CCC[C@H](C(=O)NCc1ccc(Cl)c(Cl)c1)N1CCC(CCc2ccccc2)N2C[C@H](N)C[C@H]2C1=O (stereo not given in full) | < 1000 nM | < 1 µM | –
N[C@@H]1C[C@H]2C(=O)N([C@H](CCC(=O)O)C(=O)NCc3ccc(Cl)c(Cl)c3)CCC(CCc3ccccc3)N2C1 (stereo in doubt; form 1) | in the range around 10000 nM | in the range around 10 µM | –
CC(C)C[C@H](C(=O)NCc1ccc(Cl)cc1)N1CCC(CCc2ccccc2)N2C[C@H](N)C[C@H]2C1=O (stereo not given in full) | < 1000 nM | in the range around 1 µM | –
CC(C)C[C@H](CNC(=O)c1ccc(Cl)cc1)N1CCC(CCc2ccccc2)N2C[C@H](N)C[C@H]2C1=O (stereo not given in full) | in the range around 1000 nM | in the range around 1 µM | –
N[C@@H]1C[C@H]2C(=O)N([C@H](CCc3nsc(=O)[nH]3)C(=O)NCc3ccc(Cl)c(Cl)c3)CCC(CCc3ccccc3)N2C1 (stereo not given in full) | < 1000 nM | < 1 µM | –

SMILES | IC50 [1] | IC50 [2] | other results
N[C@@H]1C[C@H]2C(=O)N([C@H](CCC(=O)O)C(=O)NCc3ccc(C(F)(F)F)cc3)CCC(CCc3ccccc3)N2C1 (stereo in doubt; form 2) [listing 1 of 2 here] | – | – | ΔTm [5]: 4 °C; ΔTm [6]: > 8 °C; ΔTm [3]: 4 °C; ΔTm [4]: > 8 °C
CC(C)C[C@H](C(=O)NCc1ccc(Cl)c(Cl)c1)N1CCC(CCc2ccccc2)N2C[C@H](N(C)C)C[C@H]2C1=O (stereo not given in full) | in the range around 10000 nM | > 100 µM | –
CC(C)C[C@H](C(=O)NCc1ccc(Cl)c(Cl)c1)N1CCC(COc2ccccc2)N2C[C@H](N)C[C@H]2C1=O (stereo not given in full) | < 1000 nM | in the range around 1 µM | –
N[C@@H]1C[C@H]2C(=O)N([C@H](CCC(=O)O)C(=O)NCc3ccc(C(F)(F)F)cc3)CCC(CCc3ccccc3)N2C1 (stereo in doubt; form 2) [listing 2 of 2 here] | < 1000 nM | < 1 µM | –
N[C@@H]1C[C@H]2C(=O)N([C@H](CCC(=O)O)C(=O)NCc3ccc(Cl)c(Cl)c3)CCC(CCc3ccccc3)N2C1 (stereo in doubt; form 2) [listing 2 of 2 here] | < 1000 nM | < 1 µM | –
CCC[C@H](C(=O)NS(=O)(=O)c1ccc(Cl)c(Cl)c1)N1CCC(CCc2ccccc2)N2C[C@H](N)C[C@H]2C1=O (stereo not given in full) | < 1000 nM | in the range around 1 µM | –
CC(C)C[C@H](C(=O)NCC1CCCCC1)N1CCC(CCc2ccccc2)N2C[C@H](N)C[C@H]2C1=O (stereo not given in full) | in the range around 10000 nM | in the range around 10 µM | –
CC(C)C[C@H](C(=O)NCc1ccc(Cl)c(Cl)c1)N1CC(CCc2ccccc2)N2C[C@H](N)C[C@H]2C1=O (stereo not given in full) | in the range around 10000 nM | in the range around 10 µM | –
CC(C)C[C@H](C(=O)NCc1ccc(Cl)c(Cl)c1)N1CCC(CCc2ccccc2)N(CCN)CC1=O (stereo not given in full) | in the range around 1000 nM | in the range around 10 µM | –
CC(C)C[C@H](C(=O)N[C@@H](C)c1ccccc1)N1CCC(CCc2ccccc2)N2C[C@H](N)C[C@H]2C1=O (stereo not given in full) | in the range around 10000 nM | in the range around 10 µM | –
CC(C)C[C@H](C(=O)NCc1ccc(C(F)(F)F)cc1)N1CCC(CCc2ccccc2)N2C[C@H](N)C[C@H]2C1=O (stereo not given in full) | < 1000 nM | < 1 µM | –
NC(=O)CC[C@H](C(=O)NCc1ccc(Cl)c(Cl)c1)N1CCC(CCc2ccccc2)N2C[C@H](N)C[C@H]2C1=O (stereo not given in full) | < 1000 nM | < 1 µM | –
Cc1ccc(CNC(=O)[C@@H](CC(C)C)N2CCC(CCc3ccccc3)N3C[C@H](N)C[C@H]3C2=O)cc1 (stereo not given in full) | in the range around 1000 nM | in the range around 1 µM | –
CC(C)C[C@H](C(=O)NCc1ccc(F)cc1)N1CCC(CCc2ccccc2)N2C[C@H](N)C[C@H]2C1=O (stereo not given in full) | < 1000 nM | in the range around 1 µM | –
CC(C)C[C@H](C(=O)NCc1cccc(Cl)c1)N1CCC(CCc2ccccc2)N2C[C@H](N)C[C@H]2C1=O (stereo not given in full) | < 1000 nM | in the range around 1 µM | –
CC(C)C[C@H](C(=O)NCc1ccc(Cl)cc1Cl)N1CCC(CCc2ccccc2)N2C[C@H](N)C[C@H]2C1=O (stereo not given in full) | < 1000 nM | in the range around 1 µM | –

Now from value to compound, other results behind:

IC50 [1] | IC50 [2] | SMILES | other results
in the range around 10000 nM | in the range around 10 µM | CC(C)C[C@H](C(=O)N[C@H](C)c1ccccc1)N1CCC(CCc2ccccc2)N2C[C@H](N)C[C@H]2C1=O (stereo not given in full) | –
in the range around 1000 nM | in the range around 1 µM | CC(C)C[C@H](C(=O)NCc1ccc(Cl)c(Cl)c1)N1CCC(Cc2ccccc2)N2C[C@H](N)C[C@H]2C1=O (stereo not given in full) | –
in the range around 10000 nM | in the range around 10 µM | CC(C)C[C@H](C(=O)NCc1ccc(Cl)c(Cl)c1)N1CCC(C)N2C[C@H](N)C[C@H]2C1=O (stereo not given in full) | –
in the range around 1000 nM | in the range around 10 µM | CC(C)C[C@H](C(=O)NCCc1ccccc1)N1CCC(CCc2ccccc2)N2C[C@H](N)C[C@H]2C1=O (stereo not given in full) | –
in the range around 1000 nM | in the range around 10 µM | CC(C)C[C@H](C(=O)NCc1cnccn1)N1CCC(CCc2ccccc2)N2C[C@H](N)C[C@H]2C1=O (stereo not given in full) | –
< 1000 nM | < 1 µM | N[C@@H]1C[C@H]2C(=O)N([C@H](CCC(=O)O)C(=O)NCc3ccc(Cl)c(Cl)c3)CCC(COc3ccccc3)N2C1 (stereo not given in full) | –
< 1000 nM | < 1 µM | N[C@@H]1C[C@H]2C(=O)N([C@H](CC(=O)O)C(=O)NCc3ccc(Cl)c(Cl)c3)CCC(CCc3ccccc3)N2C1 (stereo not given in full) | –
in the range around 1000 nM | in the range around 10 µM | CC(C)C[C@H](C(=O)NCc1ccc(Cl)cc1)N1CCC(CS(=O)(=O)c2ccccc2)N2C[C@H](N)C[C@H]2C1=O (stereo not given in full) | –
in the range around 1000 nM | in the range around 10 µM | CC(C)C[C@H](C(=O)NCc1ccccc1)N1CCC(CCc2ccccc2)N2C[C@H](N)C[C@H]2C1=O (stereo not given in full) | –
< 1000 nM | < 1 µM | N[C@@H]1C[C@H]2C(=O)N([C@H](CCc3nnn[nH]3)C(=O)NCc3ccc(Cl)c(Cl)c3)CCC(CCc3ccccc3)N2C1 (stereo not given in full) | –
< 1000 nM | < 1 µM | C[C@H](C(=O)NCc1ccc(C(F)(F)F)cc1)N1CCC(CCc2ccccc2)N2C[C@H](N)C[C@H]2C1=O (stereo not given in full) | –
in the range around 1000 nM | in the range around 10 µM | CC(C)C[C@H](C(=O)NCc1ccccc1Cl)N1CCC(CCc2ccccc2)N2C[C@H](N)C[C@H]2C1=O (stereo not given in full) | –
in the range around 1000 nM | in the range around 1 µM | CC(C)C[C@H](C(=O)N(C)Cc1ccc(C(F)(F)F)cc1)N1CCC(CCc2ccccc2)N2C[C@H](N)C[C@H]2C1=O (stereo not given in full) | –
in the range around 1000 nM | in the range around 10 µM | CC(C)C[C@H](C(=O)NCc1cscn1)N1CCC(CCc2ccccc2)N2C[C@H](N)C[C@H]2C1=O (stereo not given in full) | –
< 1000 nM | in the range around 1 µM | CC(C)C[C@H](C(=O)NCCc1ccc(Cl)c(Cl)c1)N1CCC(CCc2ccccc2)N2C[C@H](N)C[C@H]2C1=O (stereo not given in full) | –
in the range around 1000 nM | in the range around 10 µM | CC(=O)N[C@@H]1C[C@H]2C(=O)N([C@H](CC(C)C)C(=O)NCc3ccc(Cl)c(Cl)c3)CCC(CCc3ccccc3)N2C1 (stereo not given in full) | –
< 1000 nM | < 1 µM | CC(C)C[C@H](C(=O)NS(=O)(=O)c1ccc(Cl)c(Cl)c1)N1CCC(CCc2ccccc2)N2C[C@H](N)C[C@H]2C1=O (stereo not given in full) | –
